Some test systems named below: OVCAR-3 ovarian; RXF 393 renal; MCF7 breast; KM12 colon; LOX IMVI melanoma; K-562 leukemia; T-47D breast; ACHN renal; HCT-116 colon; NCI/ADR-RES ovarian.
Assay in all cases: NCI anticancer screen, dose series, 48 h

Structures are written as SMILES.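 Values below derive from 48-hour exposures of cells grown in 96-well plates, with endpoints linearly interpolated between the two concentrations bracketing the appropriate inhibition level. At the GI50, growth is halved. TGI: concentration producing complete growth inhibition.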

In the case of `O=C(NC(=O)c1cc(-c2ccccc2)n[nH]1)c1ccccc1`, the TGI in the test on OVCAR-3 ovarian, in the test with RXF 393 renal, in the test on MCF7 breast, with KM12 colon, with LOX IMVI melanoma and in the test on K-562 leukemia was over 100 µM in each case. The TGI in the test on T-47D breast, in the test on ACHN renal, in the test with HCT-116 colon and in the test with NCI/ADR-RES ovarian was over 100 µM in each case.
In the case of `O=C(N/N=C\c1ccc(N(CCCl)CCCl)cc1[N+](=O)[O-])c1cccnc1`, the GI50 in the test on OVCAR-3 ovarian, in the test on RXF 393 renal, in the test with MCF7 breast, in the test on KM12 colon, with LOX IMVI melanoma and with K-562 leukemia was over 100 µM throughout. Moreover, the GI50 in the test on T-47D breast, with ACHN renal, with HCT-116 colon and in the test on NCI/ADR-RES ovarian was over 100 µM throughout. The TGI with OVCAR-3 ovarian, with RXF 393 renal, in the test with MCF7 breast, with KM12 colon, in the test with LOX IMVI melanoma and with K-562 leukemia was over 100 µM in each case. The TGI with T-47D breast, in the test with ACHN renal, in the test with HCT-116 colon and in the test with NCI/ADR-RES ovarian was over 100 µM throughout.
`CN(C)c1ccc(/C=C(\NC(=O)c2ccccc2)C2=NC(CCC(=O)O)C(=O)O2)cc1` (stereo not given): the TGI with OVCAR-3 ovarian, in the test on RXF 393 renal, in the test with MCF7 breast, in the test on KM12 colon, in the test with LOX IMVI melanoma and with K-562 leukemia was over 50 µM throughout. For the same molecule, the TGI in the test on T-47D breast, with ACHN renal, in the test on HCT-116 colon and in the test on NCI/ADR-RES ovarian was over 50 µM in each case.
Regarding `COc1ccc2c3c([nH]c2c1)CCN(CCCC(=O)c1ccc(F)cc1)C3`, the TGI with OVCAR-3 ovarian was found to be 32.9 µM; in the test on RXF 393 renal, 28.5 µM; with MCF7 breast, 31.6 µM; in the test with KM12 colon, 34.4 µM; in the test on LOX IMVI melanoma, 26.7 µM; in the test on K-562 leukemia, 44.9 µM. The TGI with T-47D breast is 37 µM; with ACHN renal, 30.8 µM; in the test on HCT-116 colon it was 25 µM; in the test on NCI/ADR-RES ovarian, 33.9 µM.
Consider `O=c1oc2ccccc2cc1-c1cn2c(n1)sc1ccccc12`, for which the TGI is over 100 µM with OVCAR-3 ovarian; over 100 µM with RXF 393 renal; 77.4 µM in the test with MCF7 breast; over 100 µM in the test with KM12 colon; over 100 µM in the test with LOX IMVI melanoma; over 100 µM in the test with K-562 leukemia. The TGI in the test with T-47D breast, with ACHN renal, in the test on HCT-116 colon and in the test on NCI/ADR-RES ovarian was over 100 µM throughout.
For the molecule `Clc1ccc(-c2cn3c(nc4ccccc43)c(/C=C/c3ccco3)n2)cc1`, the TGI with OVCAR-3 ovarian, in the test with RXF 393 renal, in the test with MCF7 breast, with KM12 colon, with LOX IMVI melanoma and in the test on K-562 leukemia was over 100 µM throughout. In addition, the TGI in the test on T-47D breast, in the test with ACHN renal, in the test on HCT-116 colon and with NCI/ADR-RES ovarian was over 100 µM in each case.
Take `O=C(CCC=C(S(=O)(=O)c1ccccc1)S(=O)(=O)c1ccccc1)c1ccccc1`: the TGI was 17.4 µM in the test on OVCAR-3 ovarian; 20 µM with RXF 393 renal; 17.1 µM in the test with MCF7 breast; over 100 µM in the test on KM12 colon; 10.3 µM with LOX IMVI melanoma; 80.4 µM in the test on K-562 leukemia. The TGI is 44.4 µM in the test on T-47D breast, 20 µM with ACHN renal, 13.9 µM in the test on HCT-116 colon and 25.8 µM in the test on NCI/ADR-RES ovarian.
On to `C=CCN(CCNS(=O)(=O)c1ccc(C)cc1)S(=O)(=O)c1ccc(C)cc1`, for which the TGI was over 100 µM in the test with OVCAR-3 ovarian; over 100 µM in the test with RXF 393 renal; over 84.2 µM in the test with MCF7 breast; over 100 µM in the test on KM12 colon; over 100 µM with LOX IMVI melanoma; over 100 µM with K-562 leukemia. Moreover, the TGI in the test on T-47D breast, in the test with ACHN renal, in the test with HCT-116 colon and in the test with NCI/ADR-RES ovarian was over 100 µM throughout.
Turning to `COc1cc(OC)cc(-c2n/c(=C\c3c(O)[nH]c4ccc(OC)cc34)cc3c2=Nc2ccccc2-3)c1`, the GI50 in the test with OVCAR-3 ovarian is 3.45 µM; with RXF 393 renal it was 5.65 µM; in the test with MCF7 breast it was 1.4 µM; with KM12 colon it was 2.58 µM; in the test on LOX IMVI melanoma it was 3.1 µM; in the test on K-562 leukemia, 2.65 µM. Also, the GI50 in the test on T-47D breast was 24.6 µM; in the test on ACHN renal, over 100 µM; in the test on HCT-116 colon it was 1.67 µM; with NCI/ADR-RES ovarian, 3.66 µM. Also, the TGI in the test on OVCAR-3 ovarian amounted to 9.67 µM; in the test on RXF 393 renal, 27.2 µM; with MCF7 breast it was 3.41 µM; in the test on KM12 colon it was 6.21 µM; in the test with LOX IMVI melanoma it was 12.8 µM; in the test with K-562 leukemia, 6.64 µM. Besides, the TGI with T-47D breast was 75.8 µM; in the test with ACHN renal, over 100 µM; in the test with HCT-116 colon, 3.16 µM; in the test with NCI/ADR-RES ovarian, 18.7 µM.
On to `CCOC(=O)C(NC(=O)c1ccccc1)(N1CCN(c2cc3c(cc2F)c(=O)c(C(=O)O)cn3CC)CC1)C(F)(F)F` (stereo not given), for which the TGI is over 100 µM in the test with OVCAR-3 ovarian; over 100 µM with RXF 393 renal; 69.2 µM with MCF7 breast; 81.3 µM in the test on KM12 colon; 35.4 µM with LOX IMVI melanoma; over 100 µM in the test with K-562 leukemia. The TGI with T-47D breast was 88.6 µM; with ACHN renal it was over 100 µM; in the test on HCT-116 colon, over 100 µM; in the test on NCI/ADR-RES ovarian it was over 100 µM.
As for `Cc1ccc(C(=O)Nc2ccc(CP(=O)(O)O)cc2CP(=O)(O)O)cc1NC(=O)Nc1cc(C(=O)Nc2ccc(CP(=O)(O)O)cc2CP(=O)(O)O)ccc1C`, the TGI in the test with OVCAR-3 ovarian, in the test with RXF 393 renal, in the test on MCF7 breast, in the test with KM12 colon, in the test on LOX IMVI melanoma and in the test with K-562 leukemia was over 100 µM throughout. The TGI with T-47D breast, in the test on ACHN renal, in the test with HCT-116 colon and in the test on NCI/ADR-RES ovarian was over 100 µM in each case.
`CCCCCCCCCCCC[C@@H](O)[C@H]1CCC([C@H](O)CCCCC(=O)CCCCCCCC2=C[C@H](C)OC2=O)O1` (stereo not given in full): the TGI with OVCAR-3 ovarian is over 50 µM; with RXF 393 renal it was over 30.2 µM; in the test on MCF7 breast, over 50 µM; in the test on KM12 colon, over 50 µM; with LOX IMVI melanoma it was over 50 µM; in the test on K-562 leukemia, over 50 µM. The TGI in the test on T-47D breast, in the test with ACHN renal, in the test on HCT-116 colon and in the test with NCI/ADR-RES ovarian was over 50 µM in each case.

The values are drawn from PubChem BioAssay (NCI).
